Here are results for six molecules from article PMC7168151, “Brevinin-2GHk from Sylvirana guentheri and the Design of Truncated Analogs Exhibiting the Enhancement of Antimicrobial Activity” (Antibiotics, 2020).

Series [1] relates to Candida albicans (NCYC 1467). It counts as cell-based. As to the method: (§1) The antimicrobial activity of synthetic peptides was determined using the minimal inhibitory concentration (MIC) and the minimal bactericidal concentration […] performed by the microdilution method in a 96 well plate. Gram-positive bacteria, Staphylococcus aureus (NCTC 10788), methicillin-resistant Staphylococcus aureus (MRSA, NCTC 12493), Enterococcus faecalis (NCTC12697), and Gram-negative bacteria, Escherichia coli (NCTC 10418), Pseudomonas aeruginosa (ATCC 27853), Klebsiella pneumoniae (ATCC 43816) and the pathogenic yeast Candida albicans (NCYC 1467). All bacteria were cultured in MHB and C. albicans was cultured in YPD broth. Norfloxacin and amphotericin B were used as positive controls for bacteria and yeast, respectively.

Series [2] deals with methicillin-resistant Staphylococcus aureus (MRSA, NCTC 12493). It counts as cell-based. As to the method:
as §1

In series [3] the test system is Pseudomonas aeruginosa (ATCC 27853). It counts as cell-based. As to the method:
as §1

For series [4], the system named is Staphylococcus aureus (NCTC 10788). It is filed as cell-based. As to the method: as §1
Series [5] concerns Enterococcus faecalis (NCTC12697). It counts as cell-based. As to the method: as §1
The subject of series [6] is Klebsiella pneumoniae (ATCC 43816). It is filed as cell-based. The method, then:
as §1

Series [7] relates to Escherichia coli (NCTC 10418). It counts as cell-based. The method, then:
as §1

The test system of another series is HMEC-1 cells. The settings on record: for drop in cell viability of HMEC-1 cells: 100 µM.

≈ marks a conversion by molar mass, not a printed value. Where a SMILES comes first, the peptide text is derived from it. Where no end group is shown, it is not given here. Bounds are passed on as bounds.

Experimental for HMEC-1 cells: The cytotoxicity of BR2GK and its derivatives were determined by hemolysis assay and MTT assay on the dermal microvascular endothelium cell line, HMEC-1 (ATCC CRL-3243).
MTT assays were conducted as outlined previously [35]. Ten thousand cells were seeded in each well of a 96-well plate. Cells were treated with different peptide concentrations for 24 h. Triton (0.1%) X-100 was used as a positive control.
Experimental for horse erythrocytes: Horse erythrocytes (TCS Biosciences Ltd., Buckingham, UK) were subjected to the hemolysis of all synthetic peptides as described previously [35]. Briefly, the erythrocytes were washed and resuspended by PBS to achieve a 4% suspension. The test peptide solutions were transferred into the aforementioned suspension and kept at a constant 37 °C for 2 h, while Triton X-100 (Sigma-Aldrich, St. Louis, MO, USA) was employed to replace the peptide solution for establishing the positive control. The supernatants after incubation were measured at 470 nm.

Regarding “GFSSLFKAGAKYLLKQVGKAGAQQL-NH2 [BR2GK(1-25)a]”, in [1], the “MBC C. albicans” value is 16 µM and the “MIC C. albicans” value is reported as 4 µM. In series [2], the “MBC MRSA” value was 16 µM and the “MIC MRSA” value amounted to 4 µM. Also, in [3], the “MBC P. aeruginosa” value is on record as 32 µM and the “MIC P. aeruginosa” value was 8 µM. Also, in series [4], the “MBC S. aureus” value came out at 8 µM and the “MIC S. aureus” value amounted to 4 µM. For the same molecule, in series [5], the “MBC E. faecalis” value came out at 16 µM and the “MIC E. faecalis” value was found to be 4 µM. In series [6], the “MBC K. pneumoniae” value is listed as 32 µM and the “MIC K. pneumoniae” value came to 16 µM. In series [7], the “MBC E. coli” value came to 8 µM and the “MIC E. coli” value is given as 4 µM. Moreover, the “hemolysis of horse erythrocytes at 256 µM” value in the series on horse erythrocytes is recorded as “around 20%”. In the series with HMEC-1 cells, the “drop in cell viability of HMEC-1 cells” value is “around 15%”.
Turning to “GFSSLFKAGAKYLAKQVGKAGAQQL-NH2 [[A^14]BR2GK(1-25)a]”, in [1], the “MBC C. albicans” value came out at 32 µM and the “MIC C. albicans” value is listed as 16 µM. In [2], the “MBC MRSA” value is 64 µM and the “MIC MRSA” value was found to be 16 µM. For the same molecule, in [3], the “MBC P. aeruginosa” value is 128 µM and the “MIC P. aeruginosa” value was 32 µM. For the same molecule, in [4], the “MBC S. aureus” value amounted to 16 µM and the “MIC S. aureus” value was 8 µM. In series [5], the “MBC E. faecalis” value is recorded as 16 µM and the “MIC E. faecalis” value was 8 µM. In series [6], the “MBC K. pneumoniae” value is recorded as 256 µM and the “MIC K. pneumoniae” value was found to be 128 µM. In addition, in series [7], the “MBC E. coli” value came out at 32 µM and the “MIC E. coli” value worked out at 8 µM.
In series [2], “GFSSLFKAGAKYLPKQVGKAGAQQL-NH2 [[P^14]BR2GK(1-25)a]” showed an MBC MRSA of over 512 µM and an MIC MRSA of over 512 µM. Moreover, in [3], the MBC P. aeruginosa was over 512 µM and the MIC P. aeruginosa is over 512 µM. Also, in [4], the MBC S. aureus was over 512 µM and the MIC S. aureus was found to be 512 µM. In [6], this molecule showed an MBC K. pneumoniae of over 512 µM and an MIC K. pneumoniae of over 512 µM. For the same molecule, in series [7], the MBC E. coli was over 512 µM and the MIC E. coli is over 512 µM.
For the molecule `CC(C)C[C@H](NC(=O)[C@H](CCC(N)=O)NC(=O)[C@H](CCC(N)=O)NC(=O)[C@H](C)NC(=O)CNC(=O)[C@H](C)NC(=O)[C@H](CCCCN)NC(=O)CNC(=O)[C@@H](NC(=O)[C@H](CCC(N)=O)NC(=O)[C@H](CCCCN)NC(=O)[C@H](CC(C)C)NC(=O)[C@H](CC(C)C)NC(=O)[C@H](Cc1ccc(O)cc1)NC(=O)[C@H](CCCCN)NC(=O)[C@H](C)NC(=O)CNC(=O)[C@H](C)NC(=O)[C@H](CCCCN)NC(=O)[C@H](Cc1ccccc1)NC(=O)[C@H](CC(C)C)NC(=O)[C@H](CO)NC(=O)[C@H](CO)NC(=O)[C@H](Cc1ccccc1)NC(=O)CN)C(C)C)C(=O)N[C@@H](C)C(=O)N[C@H]1CSSC[C@@H](C(=O)O)NC(=O)[C@H](CC(N)=O)NC(=O)[C@H](CC(N)=O)NC(=O)[C@H](C)NC(=O)[C@H](C)NC(=O)[C@H](CCCCN)NC1=O` [BR2GK] (HELM PEPTIDE1{G.F.S.S.L.F.K.A.G.A.K.Y.L.L.K.Q.V.G.K.A.G.A.Q.Q.L.A.C.K.A.A.N.N.C}$PEPTIDE1,PEPTIDE1,27:R3-33:R3$$$V2.0), the “MIC C. albicans” value in [1] came to 256 µM (≈ 867 µg/mL). Moreover, the “MIC P. aeruginosa” value in series [3] is over 512 µM. In addition, in series [4], the “MBC S. aureus” value amounted to 256 µM (≈ 867 µg/mL) and the “MIC S. aureus” value is 64 µM (≈ 217 µg/mL). Also, in [5], the “MBC E. faecalis” value turned out to be 256 µM (≈ 867 µg/mL) and the “MIC E. faecalis” value was determined as 64 µM (≈ 217 µg/mL). In addition, the “hemolysis of horse erythrocytes at 256 µM” value in the series on horse erythrocytes is “more than 40%”. Moreover, the “cytotoxicity on HMEC-1 cells at 100 µM” value in the series on HMEC-1 cells was “significant cytotoxicity”.
Turning to “GFSSLFKAGAKYLRKQVGKAGAQQL-NH2 [[R^14]BR2GK(1-25)a]”, in series [1], the “MBC C. albicans” value was found to be 128 µM and the “MIC C. albicans” value came to 64 µM. Further, in [2], the “MBC MRSA” value is on record as 128 µM and the “MIC MRSA” value is 64 µM. In [3], the “MBC P. aeruginosa” value turned out to be 32 µM and the “MIC P. aeruginosa” value was determined as 16 µM. In series [4], the “MBC S. aureus” value was 32 µM and the “MIC S. aureus” value is 16 µM. Further, in series [5], the “MBC E. faecalis” value worked out at 32 µM and the “MIC E. faecalis” value is given as 16 µM. Besides, in [6], the “MBC K. pneumoniae” value is 256 µM and the “MIC K. pneumoniae” value amounted to 128 µM. In addition, in series [7], the “MBC E. coli” value turned out to be 16 µM and the “MIC E. coli” value is 8 µM. In addition, the “drop in cell viability of HMEC-1 cells” value in the series with HMEC-1 cells is “around 15%”.
For the molecule “GFSSLFKAGAKYLKKQVGKAGAQQL-NH2 [[K^14]BR2GK(1-25)a]”, in [1], the “MBC C. albicans” value turned out to be 128 µM and the “MIC C. albicans” value is on record as 64 µM. Also, in series [2], the “MBC MRSA” value is reported as 128 µM and the “MIC MRSA” value worked out at 64 µM. Moreover, in [3], the “MBC P. aeruginosa” value was 64 µM and the “MIC P. aeruginosa” value was 16 µM. In [4], the “MBC S. aureus” value is 32 µM and the “MIC S. aureus” value amounted to 16 µM. In [5], the “MBC E. faecalis” value was found to be 64 µM and the “MIC E. faecalis” value is listed as 16 µM. Further, in series [6], the “MBC K. pneumoniae” value was 256 µM and the “MIC K. pneumoniae” value is reported as 128 µM. In series [7], the “MBC E. coli” value is reported as 32 µM and the “MIC E. coli” value was 8 µM. Further, the “drop in cell viability of HMEC-1 cells” value in the series with HMEC-1 cells is reported as “around 15%”.
